# PubChem BioAssay (NCI)
# Several values for one entry are separate records, joined by “and”; a condition that tells them apart may be missing. Equal entries are not always repeated.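 Values below derive from 48-hour exposures of cells grown in 96-well plates, with endpoints linearly interpolated between the two concentrations bracketing the appropriate inhibition level. GI50: concentration for 50% inhibition of growth. TGI: concentration producing complete growth inhibition.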
# Columns and labels:
# Assay in all cases: growth of human tumour cells (NCI), 48 h
# [1] = tested on: 786-0 renal
# [2] = tested on: A498 renal
# [3] = tested on: A549 NSCLC
# [4] = tested on: ACHN renal
# [5] = tested on: BT-549 breast
# [6] = tested on: CAKI-1 renal
# [7] = tested on: CCRF-CEM leukemia
# [8] = tested on: COLO 205 colon
# [9] = tested on: EKVX NSCLC
# [10] = tested on: HCT-116 colon
# [11] = tested on: HCT-15 colon
# [12] = tested on: HL-60(TB) leukemia
# [13] = tested on: HOP-62 NSCLC
# [14] = tested on: HOP-92 NSCLC
# [15] = tested on: HS 578T breast
# [16] = tested on: HT29 colon
# [17] = tested on: IGROV1 ovarian
# [18] = tested on: K-562 leukemia
# [19] = tested on: KM12 colon
# [20] = tested on: LOX IMVI melanoma
# [21] = tested on: M14 melanoma
# [22] = tested on: MALME-3M melanoma
# [23] = tested on: MCF7 breast
# [24] = tested on: MDA-MB-231 breast
# [25] = tested on: MDA-MB-435
# [26] = tested on: MDA-N
# [27] = tested on: MOLT-4 leukemia
# [28] = tested on: NCI-H226 lung
# [29] = tested on: NCI-H23 lung
# [30] = tested on: NCI-H460 lung
# [31] = tested on: NCI-H522 lung
# [32] = tested on: NCI/ADR-RES ovarian
# [33] = tested on: OVCAR-3 ovarian
# [34] = tested on: OVCAR-4 ovarian
# [35] = tested on: OVCAR-5 ovarian
# [36] = tested on: OVCAR-8 ovarian
# [37] = tested on: PC-3 prostate
# [38] = tested on: RPMI-8226 leukemia
# [39] = tested on: RXF 393 renal
# [40] = tested on: SF-268 CNS
# [41] = tested on: SF-295 CNS
# [42] = tested on: SF-539 CNS
# [43] = tested on: SK-MEL-2 melanoma
# [44] = tested on: SK-MEL-5 melanoma
# [45] = tested on: SK-OV-3 ovarian
# [46] = tested on: SNB-19 CNS
# [47] = tested on: SNB-75 CNS
# [48] = tested on: SR leukemia
# [49] = tested on: SW-620 colon
# [50] = tested on: T-47D breast
# [51] = tested on: TK-10 renal
# [52] = tested on: U251 CNS
# [53] = tested on: UACC-257 melanoma
# [54] = tested on: UACC-62 melanoma
# [55] = tested on: UO-31 renal
# [56] = tested on: HCC-2998 colon
# [57] = tested on: SK-MEL-28 melanoma
# [58] = tested on: SN12C renal
structure (smiles),measurement,setting,value
Cc1ccc(S(=O)(=O)NC(CCC(=O)NN)C(=O)NN)cc1 (stereo not drawn),TGI,[1],> 100000 nM
same,TGI,[2],> 100000 nM
same,TGI,[3],> 100000 nM
same,TGI,[4],> 100000 nM
same,TGI,[5],> 100000 nM
same,TGI,[6],> 100000 nM
same,TGI,[7],> 100000 nM
same,TGI,[8],> 100000 nM
same,TGI,[9],> 100000 nM
same,TGI,[10],> 100000 nM
same,TGI,[11],> 100000 nM
same,TGI,[12],> 100000 nM
same,TGI,[13],> 100000 nM
same,TGI,[14],> 100000 nM
same,TGI,[15],> 100000 nM
same,TGI,[16],> 100000 nM
same,TGI,[17],> 100000 nM
same,TGI,[18],> 100000 nM
same,TGI,[19],> 100000 nM
same,TGI,[20],> 100000 nM
same,TGI,[21],> 100000 nM
same,TGI,[22],> 100000 nM
same,TGI,[23],> 100000 nM
same,TGI,[24],> 100000 nM
same,TGI,[25],> 100000 nM
same,TGI,[26],> 100000 nM
same,TGI,[27],> 100000 nM
same,TGI,[28],> 100000 nM
same,TGI,[29],> 100000 nM
same,TGI,[30],21600 nM
same,TGI,[31],> 100000 nM
same,TGI,[32],> 100000 nM
same,TGI,[33],> 100000 nM
same,TGI,[34],> 100000 nM
same,TGI,[35],> 100000 nM
same,TGI,[36],> 100000 nM
same,TGI,[37],> 100000 nM
same,TGI,[38],> 100000 nM
same,TGI,[39],> 100000 nM
same,TGI,[40],> 100000 nM
same,TGI,[41],> 100000 nM
same,TGI,[42],> 100000 nM
same,TGI,[43],> 100000 nM
same,TGI,[44],> 100000 nM
same,TGI,[45],> 100000 nM
same,TGI,[46],> 100000 nM
same,TGI,[47],> 100000 nM
same,TGI,[48],> 100000 nM
same,TGI,[49],> 100000 nM
same,TGI,[50],> 100000 nM
same,TGI,[51],> 100000 nM
same,TGI,[52],> 100000 nM
same,TGI,[53],> 100000 nM
same,TGI,[54],> 100000 nM
same,TGI,[55],> 100000 nM
COc1ccc2[nH]c3c(C)c4ccnc(NCCCN(C)CCCNc5ccc6nnn7c8ccccc8c(=O)c5c67)c4c(C)c3c2c1,TGI,[1],1690 nM
same,TGI,[2],2880 nM
same,TGI,[3],1060 nM
same,GI50,[4],136 nM
same,TGI,[4],1290 nM and 1550 nM
same,TGI,[5],3510 nM
same,TGI,[6],2270 nM
same,TGI,[7],5510 nM
same,TGI,[8],3530 nM
same,TGI,[9],2170 nM
same,TGI,[56],1440 nM
same,TGI,[10],1140 nM
same,TGI,[11],1570 nM
same,TGI,[12],1210 nM
same,TGI,[13],2050 nM
same,TGI,[15],3910 nM
same,TGI,[16],1360 nM
same,TGI,[17],1800 nM
same,GI50,[19],818 nM
same,TGI,[19],1800 nM and 2330 nM
same,TGI,[20],1620 nM
same,TGI,[21],2130 nM
same,TGI,[23],1250 nM
same,TGI,[24],3190 nM
same,TGI,[25],1750 nM
same,TGI,[26],2090 nM
same,TGI,[27],132 nM
same,TGI,[29],2040 nM
same,TGI,[30],492 nM
same,TGI,[31],1670 nM
same,TGI,[32],2690 nM
same,TGI,[33],2400 nM
same,TGI,[34],4720 nM
same,TGI,[35],2730 nM
same,TGI,[36],2130 nM
same,TGI,[37],1910 nM
same,TGI,[38],2190 nM
same,TGI,[39],2570 nM
same,GI50,[40],209 nM
same,TGI,[40],2510 nM and 3140 nM
same,TGI,[41],1440 nM
same,TGI,[42],1380 nM
same,GI50,[57],3450 nM
same,GI50,[45],3290 nM
same,TGI,[45],> 100000 nM
same,GI50,[58],294 nM
same,TGI,[58],1990 nM and 1670 nM
same,TGI,[46],2420 nM
same,GI50,[47],1410 nM
same,TGI,[47],2170 nM and 2860 nM
same,TGI,[48],> 100000 nM
same,TGI,[49],1160 nM
same,TGI,[50],6940 nM
same,TGI,[51],2380 nM
same,TGI,[52],1670 nM
same,TGI,[53],4750 nM
same,GI50,[55],1290 nM
same,TGI,[55],2610 nM and 2760 nM
